Experimental data: ChEMBL document CHEMBL1201862, “PubChem BioAssay data set” (2004)
The source made the active and inactive calls.

Tests used:
fMet-Leu-Phe receptor = molecular target: T1, fMet-Leu-Phe receptor (Homo sapiens, UniProt P21462); assay: formyl peptide receptor binders – dose response (AID 519); format: functional
T1 sequence (P21462 whole entry): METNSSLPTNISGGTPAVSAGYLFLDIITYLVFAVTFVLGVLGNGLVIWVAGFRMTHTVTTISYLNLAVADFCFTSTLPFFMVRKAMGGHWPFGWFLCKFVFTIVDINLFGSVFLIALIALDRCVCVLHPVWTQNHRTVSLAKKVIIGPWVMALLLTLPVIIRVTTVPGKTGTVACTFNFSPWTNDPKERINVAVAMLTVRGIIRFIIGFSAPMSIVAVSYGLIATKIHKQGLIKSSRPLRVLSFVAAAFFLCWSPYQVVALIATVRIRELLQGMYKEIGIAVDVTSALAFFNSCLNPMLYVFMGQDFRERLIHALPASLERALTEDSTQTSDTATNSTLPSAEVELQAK

[1] = molecular target: T2, DNA repair protein RAD52 homolog (Homo sapiens, UniProt P43351); format: functional, biochemical
T2 sequence (P43351 whole entry): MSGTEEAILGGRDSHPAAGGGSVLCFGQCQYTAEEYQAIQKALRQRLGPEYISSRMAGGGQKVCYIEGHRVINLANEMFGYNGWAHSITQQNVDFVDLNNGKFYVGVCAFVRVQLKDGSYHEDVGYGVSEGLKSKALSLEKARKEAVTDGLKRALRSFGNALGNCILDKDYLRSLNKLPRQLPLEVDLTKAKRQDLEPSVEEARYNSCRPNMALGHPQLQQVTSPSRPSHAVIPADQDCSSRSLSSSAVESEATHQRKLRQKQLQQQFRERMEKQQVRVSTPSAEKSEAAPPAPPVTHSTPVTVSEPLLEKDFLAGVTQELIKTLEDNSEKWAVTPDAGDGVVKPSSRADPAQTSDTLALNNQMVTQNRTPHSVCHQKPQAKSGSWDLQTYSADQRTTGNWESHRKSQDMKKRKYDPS

[2] = molecular target: T3, Disintegrin and metalloproteinase domain-containing protein 17 (Homo sapiens, UniProt P78536); assay: exosite inhibitors of ADAM17, dose response, biochemical (AID 743260)
[3] = inhibition of ADAM10 peptide cleavage – biochemical, FRET peptide substrate, recombinant human ADAM10, selectivity assay for ADAM17 exosite inhibitor project, dose response (AID 743259);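 note: ADAM10 enzyme cleaving a FRET peptide substrate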
[4] = viability of PTEN-deleted HCT116 cells – cell-based, HCT116 PTEN knockout, dose response (AID 1047); format: functional;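 note: HCT116 colon tumor cells with PTEN knocked out; cells exposed to compound for 60 hours before readout; potency for loss of cell viability measured by luminescence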
[5] = viability of HCT116 lacking mutant beta-catenin – cell-based, human colon tumor, dose response (AID 1045); format: functional;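 note: HCT116 colon tumor cells with beta catenin knocked out; cells exposed to compound for 60 hours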
[6] = molecular target: T3, Disintegrin and metalloproteinase domain-containing protein 17; assay: inhibition of ADAM17 substrate cleavage – biochemical, quenched FRET substrate, counter-screen for ADAM10 exosite inhibitor project, dose response (AID 743253)
cells [7] = format: functional, cell-based
[8] = molecular target: T4, Trace amine-associated receptor 1 (Homo sapiens, UniProt Q96RJ0); assay: Fluorescence-based cell-based high throughput dose response assay to identify agonists of the human trace amine associated receptor 1 (TAAR1).; format: functional
T4 sequence (Q96RJ0 whole entry): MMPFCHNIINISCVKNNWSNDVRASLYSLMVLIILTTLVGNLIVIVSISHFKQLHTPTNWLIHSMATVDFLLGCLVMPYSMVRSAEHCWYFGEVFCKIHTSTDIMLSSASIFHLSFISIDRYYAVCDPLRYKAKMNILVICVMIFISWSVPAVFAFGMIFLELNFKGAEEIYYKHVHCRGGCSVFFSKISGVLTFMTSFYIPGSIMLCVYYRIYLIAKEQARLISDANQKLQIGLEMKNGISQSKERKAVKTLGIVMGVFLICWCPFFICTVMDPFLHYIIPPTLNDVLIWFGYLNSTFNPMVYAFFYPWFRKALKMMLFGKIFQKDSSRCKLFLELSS

[9] = molecular target: T4, Trace amine-associated receptor 1; assay: Counterscreen for agonists of the human trace amine associated receptor 1 (hTAAR1): Fluorescence-based cell-based high throughput dose response assay to identify hTAAR1 agonist that also desensitize TAAR1 receptor response.; format: functional
cells [10] = format: functional, cell-based; remark: listed apart in the source
Major prion protein = Major prion protein (Homo sapiens, UniProt P04156); format: functional, cell-based
cells [11] = assay: cells
[12] = Luminescence Cell-Based Dose Retest to Confirm Inhibitors of Cancer Stem Cells. [Related pubchem assays (depositor defined):AID2717, AID2721]; format: functional; details: Homo sapiens
cells [13] = format: functional, cell-based; remark: listed apart in the source
[14] = molecular target: T5, Nuclear receptor subfamily 0 group B member 1 (Homo sapiens, UniProt P51843); format: functional, cell-based;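 note: HEK293T cells transfected with SF-1 and DAX-1 plus StAR promoter luciferase reporter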
T5 sequence (P51843 whole entry): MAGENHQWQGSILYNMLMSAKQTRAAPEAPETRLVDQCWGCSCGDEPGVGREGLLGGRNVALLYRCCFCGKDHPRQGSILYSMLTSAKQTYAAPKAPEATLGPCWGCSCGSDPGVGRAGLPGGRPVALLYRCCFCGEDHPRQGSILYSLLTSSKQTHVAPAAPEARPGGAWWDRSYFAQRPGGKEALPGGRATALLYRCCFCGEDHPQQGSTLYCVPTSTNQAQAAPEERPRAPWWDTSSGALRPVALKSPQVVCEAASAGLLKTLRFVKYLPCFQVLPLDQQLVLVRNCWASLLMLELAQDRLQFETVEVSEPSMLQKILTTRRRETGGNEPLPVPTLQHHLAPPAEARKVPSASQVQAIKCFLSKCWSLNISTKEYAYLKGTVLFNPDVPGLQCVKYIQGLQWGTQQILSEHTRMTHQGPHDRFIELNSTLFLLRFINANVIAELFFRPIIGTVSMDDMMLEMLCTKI

[15] = toxicity toward HepG2 liver cells – cell-based, plate reader, cherry-pick, antagonist series, cytotoxicity control, dose response (AID 743416); format: functional
[16] = blockers of bursicon-stimulated LGR2 cAMP reporter – cell-based, HEK293, CRE-luciferase reporter, cherry pick, set 2, dose response (AID 743343); format: functional;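 note: transfected cells were stimulated with diluted bursicon conditioned medium after compound addition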
[17] = A549 cell cytotoxicity, dose response, cytotoxicity control, plate reader, cherry-pick, antagonist series (AID 743412); format: functional, cell-based
H9c2 = assay: cells; format: functional, cell-based; details: Rattus norvegicus, H9c2, Myocardium;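 note: confirmatory concentration-response retest of ultra-high-throughput screening hits for modulation of myocardial damage; cell death induced by hydrogen peroxide oxidative stress; compound pretreatment for 60 min then peroxide exposure for 2 h; potency is for protecting the cells against peroxide damage rather than for killing them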
[18] = viability loss in HEK293 cells – cell-based, plate reader, cherry-picked samples, cytotoxicity control, dose response (AID 743446); format: functional
[19] = blockade of melanocortin 4 receptor signaling – cell-based, plate reader, cherry pick, counter-screen for LGR2 antagonist project, dose response (AID 743444); format: functional;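 note: transfected HEK 293 cells stimulated with alpha-MSH peptide; potency of inhibitors of the alpha-MSH evoked signal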
[20] = Luminescence Cell-Based Dose Confirmation HTS to Identify Inhibitors of Platelet Dense Granule Release. [Related pubchem assays: 1663 (Primary HTS), 1678 (Summary of Project)]; format: functional
[21] = molecular target: Luciferin 4-monooxygenase (Photinus pyralis, UniProt P08659); assay: inhibition of purified Photinus pyralis luciferase – biochemical, luminescence, dose response (AID 1891)
HEK293 [22] = assay: cells; details: Homo sapiens
[23] = reduction of Shn3 3'UTR-driven luciferase in osteoblasts – cell-based, Clone20 osteoblasts, firefly luciferase, cherry-picked, dose response (AID 624132); format: functional;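 note: firefly luciferase luminescence from reporter carrying the Shn3 3'UTR in osteoblasts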
[24] = non-specific 3'UTR reporter inhibition in Clone20-Shn3RL – cell-based, Renilla luciferase, cherry-picked, counter-screen for Shn3 inhibitor project, dose response (AID 624133); format: functional
[25] = loss of viability in HepG2 cells – cell-based, CellTiter-Glo, cherry-picked, cytotoxicity control for Shn3 inhibitor project, dose response (AID 624134); format: functional
HEK293 [26] = assay: cells; details: Homo sapiens; remark: listed apart in the source
[27] = molecular target: NAD-dependent protein deacylase sirtuin-5, mitochondrial (Homo sapiens, UniProt Q9NXA8); assay: sirtuin-5 deacylation blockers, concentration series – biochemical, fluorescence imaging, cherry-pick, set 5, dose response (AID 720591);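 note: desuccinylation of succinyl peptide AMC substrate read as fluorescence after trypsin release; potency of inhibitors that lower fluorescence and may act on trypsin instead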
Cytochrome P450 1A2 = molecular target: T6, Cytochrome P450 1A2 (Homo sapiens, UniProt P05177);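 note: PubChem cytochrome P450 panel assay, CYP1A2 panel member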
T6 sequence (P05177 whole entry): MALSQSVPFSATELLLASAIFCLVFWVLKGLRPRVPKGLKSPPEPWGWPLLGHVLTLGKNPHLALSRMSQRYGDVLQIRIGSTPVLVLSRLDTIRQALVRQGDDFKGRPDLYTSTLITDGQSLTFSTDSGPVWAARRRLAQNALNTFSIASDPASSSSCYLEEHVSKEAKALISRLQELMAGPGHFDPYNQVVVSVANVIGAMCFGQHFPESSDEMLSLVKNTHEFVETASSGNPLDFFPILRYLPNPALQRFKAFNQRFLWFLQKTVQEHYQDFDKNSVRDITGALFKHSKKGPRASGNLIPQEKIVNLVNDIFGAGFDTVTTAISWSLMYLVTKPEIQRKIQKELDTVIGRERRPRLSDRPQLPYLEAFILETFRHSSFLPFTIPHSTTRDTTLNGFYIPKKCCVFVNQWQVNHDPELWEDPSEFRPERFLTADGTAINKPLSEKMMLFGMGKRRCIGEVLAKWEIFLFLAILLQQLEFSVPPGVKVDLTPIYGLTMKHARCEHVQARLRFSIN

Beta-lactamase [28] = molecular target: T7, Beta-lactamase (Pseudomonas aeruginosa, UniProt Q79MP6); assay: […] counterscreen for selective VIM-2 inhibitors: dose response biochemical high throughput screening assay to identify inhibitors of IMP-1 metallo-beta-lactamase.
Cytochrome P450 3A4 = Cytochrome P450 3A4 (Homo sapiens, UniProt P08684);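 note: CYP3A4 tested as one member of a cytochrome P450 panel screen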
Beta-lactamase [29] = molecular target: T7, Beta-lactamase; assay: inhibition of IMP-1 beta-lactamase activity – biochemical, epi-absorbance, selectivity assay for VIM-2 inhibitor project, dose response (AID 1920)
Cytochrome P450 2C19 = Cytochrome P450 2C19 (Homo sapiens, UniProt P33261); assay: Cytochrome panel assay with activity outcomes. Panel member name: p450-cyp2c19 Compounds with AC50 equal or less than 10 uM are considered active; format: functional; details: read-out: AC50
Beta-lactamase [30] = molecular target: Beta-lactamase (Salmonella choleraesuis (strain SC-B67), UniProt Q5J463); assay: Epi-absorbance-based counterscreen for selective VIM-2 inhibitors: dose response biochemical high throughput screening assay to identify inhibitors of TEM-1 serine-beta-lactamase.

C=CCN1C(=O)C2(C(C(=O)c3ccc4c(c3)OCCO4)=C(O)C(=O)N2CCCOC)c2ccccc21 (stereo unspecified)
Ki (fMet-Leu-Phe receptor): > 66.7 µM (inactive)

CN(C)CCCN=c1cc(-c2ccccc2)oc2ccc(Cl)cc12
AC50 [1]: 4.38 µM (active)

Nc1[nH]c(C(=O)c2ccc(Br)cc2)c(-c2ccc(Cl)cc2[N+](=O)[O-])c1C(=O)NCCc1c[nH]c2ccccc12
IC50 [2]: > 69.5 µM (inactive) | IC50 [3]: 9.24 µM (active)

N#Cc1c(Cl)nc(N/N=C/c2ccccc2)c(Cl)c1Cl
EC50 [4]: 12.1 µM (active) | EC50 [5]: 6.92 µM (active) | IC50 [6]: > 69.5 µM (inactive)

c1ccc(C2CNCCc3ccccc32)cc1 (stereo unspecified)
IC50 (cells [7]): > 29.9 µM (inactive) | EC50 [8]: 1.41 µM (active) | IC50 [9]: 3.36 µM (active) | EC50 (cells [10]): > 29.9 µM (inactive)

Cc1ccc(Cc2c(-c3ccco3)nc3ccc(Br)cn23)cc1
IC50 (Major prion protein): 8.5 µM (active) | IC50 (cells [11]): 56.8 µM (inactive)

N=C(N/N=C\c1ccc(F)cc1)N/N=C\c1ccc(F)cc1
IC50 (cells [7]): > 29.9 µM (inactive) | EC50 [8]: 1.75 µM (active) | IC50 [9]: 4.9 µM (active) | AC50 [12]: 5.38 µM (active) | EC50 (cells [10]): 26.1 µM (inactive)

CN1Cc2c(N3CCOCC3)nc3sc(C(=O)c4ccccc4)c(N)c3c2CC1(C)C
AC50 [1]: 32.1 µM (active)

Cc1cccc(NC(=O)c2ccc3c(=O)n4c(nc3c2)CCCCC4)n1
IC50 (cells [13]): > 67.5 µM (inactive) | IC50 [14]: > 0.834 µM (active)

CCc1nc2ccc(C(=O)Nc3cc(-c4ccccc4)ccc3OC)cn2c1N(C)Cc1nccs1
AC50 [15]: 51.1 µM (active) | AC50 [16]: 9.18 µM (active) | AC50 [17]: 21.6 µM (active) | IC50 [2]: > 69.5 µM (inactive) | IC50 (H9c2): > 79 µM (inactive) | AC50 [18]: 18.1 µM (active) | AC50 [19]: 18.4 µM (active) | IC50 [3]: > 69.5 µM (inactive)

COC(=O)CSc1nc(COc2ccccc2)nc2ccccc12
IC50 (Major prion protein): 8.48 µM (active) | IC50 (cells [11]): > 138 µM (inactive) | EC50 [20]: > 112 µM (not active) | EC50 [21]: > 112 µM (not active)

COc1cccc(Nc2nc(C(C)N)cs2)n1 (stereo unspecified)
IC50 (cells [7]): > 29.9 µM (inactive) | EC50 [8]: 1.17 µM (active) | IC50 [9]: 4.76 µM (active) | EC50 (cells [10]): > 29.9 µM (inactive)

Cc1ccc2c(CN(C)Cc3ccccc3)cc(=O)oc2c1
IC50 (cells [13]): > 67.6 µM (inactive) | IC50 [14]: > 67.6 µM (inactive)

CN(C)CCNC(=O)c1ccc(Cl)c2cc3ccccc3nc12
EC50 (HEK293 [22]): > 2.21 µM (active) | AC50 [23]: 9.85 µM (active) | AC50 [24]: 24 µM (active) | AC50 [25]: 4.37 µM (active) | AC50 [1]: 0.846 µM (active) | EC50 (HEK293 [26]): > 59.7 µM (inactive)

C/C(NCc1cccnc1)=C1/C(=O)NC(=O)N(c2ccc(C)cc2)C1=O
IC50 (Major prion protein): 10.2 µM (inactive) | IC50 (cells [11]): > 138 µM (inactive)

CCc1ccccc1NC(=O)CNC(=O)CNC(=O)c1cccs1
AC50 [27]: 25.1 µM (active)

Cc1ccsc1C1C2=C(O)CC(C)(C)CC2=Nc2ncnn21 (stereo unspecified)
Ki (fMet-Leu-Phe receptor): 12.5 µM (active)

CC(C)(C)C(=O)Nc1nnc(SCC(=O)NCc2cccs2)s1
AC50 (Cytochrome P450 1A2): 22.4 µM (inconclusive) | IC50 (Beta-lactamase [28]): > 59.6 µM (inactive) | AC50 (Cytochrome P450 3A4): 25.1 µM (inconclusive) | IC50 (Beta-lactamase [29]): > 59.6 µM (inactive) | AC50 (Cytochrome P450 2C19): 3.16 µM (inconclusive) | IC50 (Beta-lactamase [30]): > 59.6 µM (inactive)

OC(CNCc1ccccc1)COc1ccccc1 (stereo unspecified)
AC50 [27]: > 30 µM (inactive)
